In PubChem BioAssay AID624129 (Sanford-Burnham Center for Chemical Genomics, 2012):
The source made the active and inactive calls. No rule for the calls is given here.

Biological target: C-X-C chemokine receptor type 6 (Homo sapiens) (UniProt O00574)
Experiment: potency against CXCR6 with APJ panel – cell-based, beta-arrestin, DiscoveRx, uHTS hits, dose response (AID 624129)
Conditions: CXCR6 beta-arrestin (DiscoveRx) antagonist cell assay; for outcome: CXCR6, dose range 1; for inhibition: CXCR6, run 2, dose range 1, at 79 µM (top of the series)
[1] = CXCR6, dose range 1, mean IC50 across replicates

C-X-C chemokine receptor type 6 (Homo sapiens), sequence (O00574 whole entry, looked up): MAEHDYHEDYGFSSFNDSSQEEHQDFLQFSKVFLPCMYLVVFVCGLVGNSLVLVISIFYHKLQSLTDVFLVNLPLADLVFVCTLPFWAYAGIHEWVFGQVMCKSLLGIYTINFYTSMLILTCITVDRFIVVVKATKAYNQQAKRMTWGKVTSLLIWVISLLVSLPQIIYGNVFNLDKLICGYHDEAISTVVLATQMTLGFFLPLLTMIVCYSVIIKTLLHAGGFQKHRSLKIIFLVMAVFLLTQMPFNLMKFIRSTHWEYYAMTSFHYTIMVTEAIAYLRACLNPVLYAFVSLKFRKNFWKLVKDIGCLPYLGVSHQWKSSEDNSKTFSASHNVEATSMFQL

| outcome | IC50 [1] | IC50 (CXCR6, run 1, dose range 2) | inhibition | IC50 (CXCR6, run 2, dose range 2) | SMILES |
| --- | --- | --- | --- | --- | --- |
| inactive | 34.5 µM | 21.8 µM | 72.1% | 47.2 µM | COc1ccc(-c2nn(C)c(=O)c3ccccc23)cc1NC(=O)Cn1nc(C)c2ccccc2c1=O |
| inactive | 15.9 µM | 13.2 µM | 99.2% | 18.5 µM | CCN(CC)CCn1c(N)c(S(=O)(=O)c2ccccc2)c2nc3ccccc3nc21 |
| inactive | 16.3 µM | 17.3 µM | 68.1% | 15.4 µM | Cc1cc(O)ccc1NC(=S)NC(=O)c1cncc(Br)c1 |
| inactive | 11.8 µM | 11.1 µM | 114% | 12.6 µM | N#Cc1c([N+](=O)[O-])cc([N+](=O)[O-])cc1S(=O)(=O)Cc1ccccc1 |
| inactive | 35.1 µM | > 79 µM | 106% | 35.1 µM | COc1ccc(NC(=S)NNc2ccc([N+](=O)[O-])cc2S(=O)(=O)Nc2ccc(C)cc2C)cc1 |
| inactive | 14.9 µM | 14.3 µM | 110% | 15.5 µM | CN(C)CCCN(C(=O)CCS(=O)(=O)c1ccccc1)c1nc2cc3c(cc2s1)OCO3 |
| inactive | 16.5 µM | 15.1 µM | 111% | 18 µM | O=C1C=CC(=O)N1CCCCCCCCCCN1C(=O)C=CC1=O |
| inactive | 28.8 µM | 29.4 µM | 98.5% | 28.2 µM | C=CCOc1ccc(C=NNc2ccc(S(=O)(=O)Nc3ccccc3C(=O)O)cc2[N+](=O)[O-])cc1OC |
| inactive | 20.1 µM | 18 µM | 84.4% | 22.2 µM | Cc1ccc(C(=O)NNC(=S)NC(=O)c2ccccc2)cc1 |
| inactive | 13.6 µM | 9.19 µM | 99.3% | 18 µM | CCOC(=O)c1c(-c2ccc(C)o2)csc1NC(=S)NC(=O)N(C)C |
| inactive | 13.5 µM | 13.1 µM | 74.3% | 14 µM | COc1cccc(C(=O)NC(=S)N2CCN(c3ccc(C(F)(F)F)cc3[N+](=O)[O-])CC2)c1 |
| inactive | 49.2 µM | 49.2 µM | 81% | > 79 µM | CCOc1cc(/C=C2\C(=O)N(c3cccc(C(F)(F)F)c3)C(=O)c3ccccc32)ccc1O |
| inactive | 11.4 µM | 10.3 µM | 114% | 12.5 µM | CN(c1ccccc1)c1ccc(/C=C/[N+](=O)[O-])cc1 |
| inactive | 19.6 µM | 17.7 µM | 92.1% | 21.6 µM | O=C1c2cccc3c([N+](=O)[O-])ccc(c23)C(=O)N1c1ccc(Cl)cn1 |
| inactive | 14.1 µM | 11.7 µM | 93.3% | 16.4 µM | NC(=S)NN=C1c2cc(Cl)ccc2-c2c1cc(Cl)cc2[N+](=O)[O-] |
| inactive | 50.5 µM | 50.5 µM | 61.7% | > 79 µM | CCCc1cc(=O)oc2cc(OC(=O)CN3C(=O)NC4(CCCC4)C3=O)ccc12 |
| inactive | 14.1 µM | 13.8 µM | 112% | 14.3 µM | CCCNC(=O)c1nnsc1S(=O)(=O)c1ccc(Cl)cc1 |
| active | 5.58 µM | 5.58 µM | 36.4% | > 79 µM | NC(=O)c1ccccc1NCC(=O)c1ccc(Cl)cc1 |

| outcome | IC50 [1] | IC50 (CXCR6, run 1, dose range 2) | inhibition | IC50 (CXCR6, run 2, dose range 2) | SMILES |
| --- | --- | --- | --- | --- | --- |
| inactive | 11.3 µM | 10.9 µM | 113% | 11.6 µM | O=C(C#Cc1ccccc1)c1ccccc1 |
| inactive | 28.4 µM | 35 µM | 78.8% | 21.8 µM | COc1cc(/C=C/c2ccc3cccc(OC)c3n2)c(OC(C)=O)c([N+](=O)[O-])c1 |
| inactive | 22.5 µM | 21.5 µM | 108% | 23.5 µM | CCC(=O)OCCNc1cc(SCCC(=O)OC)c2nonc2c1[N+](=O)[O-] |
| inactive | 12.6 µM | 11.7 µM | 65.4% | 13.4 µM | C=CCN(CC=C)C(=S)NC(=O)c1ccc(C)c(Br)c1 |
| inactive | 12.2 µM | 11.3 µM | 103% | 13.1 µM | CCCC(=O)OCCNc1cc(SCc2ccco2)c2nonc2c1[N+](=O)[O-] |
| inactive | 28.4 µM | 24.7 µM | 70.2% | 32 µM | O=C(NC(=S)Nc1ccccc1O)c1cncc(Br)c1 |
| inactive | 20.5 µM | 17.2 µM | 84.7% | 23.7 µM | CCn1nccc1C(=O)Nc1nc2ccccc2n1CCN1CCCCC1 |
| inactive | 30.4 µM | 26.5 µM | 109% | 34.3 µM | COc1ccc2nc(-n3c(O)c(C4=c5ccccc5=NC4=O)[nH]c3=S)sc2c1 |
| inactive | 11.2 µM | 11.3 µM | 60.7% | 11 µM | Cn1c(=O)n(C)c2cc([N+](=O)[O-])c(N3CCN(C(=O)c4cccc(Cl)c4)CC3)cc21 |
| inactive | 11.5 µM | 11.6 µM | 109% | 11.4 µM | C=C1C(=O)[C@]23C[C@H]1CCC2[C@@]1(C)C(C[C@@H]3O)[C@](C)(C(=O)OC)CC[C@@H]1O (stereo not given in full) |
| inactive | 44.8 µM | 21.7 µM | 61.3% | 67.8 µM | COc1ccc(C(=O)/C=C/Sc2nc3ccccc3o2)cc1 |
| inactive | 12.9 µM | 11.6 µM | 73% | 14.1 µM | COC(=O)c1ccc(C)c(-n2c(=O)n(Cc3ccccc3)c(=O)c3[nH]cnc32)c1 |
| inactive | 18.2 µM | 17.8 µM | 112% | 18.7 µM | CC[N+]1(C)CCC(O)(/C=C/c2ccccc2)C(C(=O)/C=C/c2ccccc2)C1 (stereo not given) |
| inactive | 11.5 µM | 10.2 µM | 98% | 12.9 µM | CCCCC(=O)NC(=S)NNC(=O)c1ccc(OC)cc1 |
| inactive | 13.3 µM | 12.9 µM | 111% | 13.8 µM | CC(C)[C@H](NC(=O)OC(C)(C)C)c1nnc(S(=O)(=O)Cc2c(F)cccc2Cl)o1 |
| inactive | 12 µM | 12.2 µM | 112% | 11.9 µM | O=[N+]([O-])c1cc2no[n+]([O-])c2cc1N1CCCCC1 |
| inactive | 21.4 µM | 20.1 µM | 76% | 22.7 µM | CC(O)CN(CC(C)O)c1ccc2c(c1)Cc1cc([N+](=O)[O-])ccc1-2 (stereo not given) |
